Data reported in PMC4494771, “Synthesis, structure, and biological activity of novel heterocyclic sulfonyl-carboximidamides” (Monatshefte Fur Chemie, 2013).

Key:
[1] = test system: neonatal human dermal fibroblasts (ATCC PCS-201-010); assay: Cytotoxic activity, fibroblast proliferation (sulforhodamine B); format: cell-based
Description: Passage for normal neonatal human dermal fibroblasts (ATCC PCS-201-010, lot 58243223) were grown in DMEM with 5 % calf serum (Hyclone). For the experiment, cells were plated in DMEM/5 % serum at 2,000 cells/well in 96 well plates (plate 598) and were exposed to test materials for 96 h. MAP and bFGF were used as the positive controls and water, 1, 0.5, and 0.25 % DMSO were used as the negative controls. Plate growth was stopped and cells were stained with a sulforhodamine B dye. The dye was then dissolved and a colorimetric signal proportional to total cell/protein count was quantified with the BioRad microplate spectrophotometer 3550-UV at 570 nm with background subtraction at 660 nm and analyzed with Microplate Manager v.2 software for Macintosh (BioRad). Error bars represent standard errors of the mean (SEM). P values representing statistical significance were calculated using the t test.

[2] = test system: leukemia cell lines; assay: NCI-60 DTP human tumor cell line screening, leukemia panel; format: cell-based; details: mean for leukemia cell line panel, read-out: GI 50 mean value
[3] = test system: K-562; assay: NCI-60 DTP human tumor cell line screening; format: cell-based
[4] = test system: RPMI-8226; assay: NCI-60 DTP human tumor cell line screening; format: cell-based; details: Leukemia RPMI-8226
[5] = test system: SR; assay: NCI-60 DTP human tumor cell line screening; format: cell-based; details: Leukemia SR
[6] = test system: EKVX; assay: NCI-60 DTP human tumor cell line screening; format: cell-based; details: Non-small cell lung cancer EKVX
[7] = test system: HOP-92; assay: NCI-60 DTP human tumor cell line screening; format: cell-based; details: Non-small cell lung cancer HOP-92
[8] = test system: NCI-H23; assay: NCI-60 DTP human tumor cell line screening; format: cell-based; details: Non-small cell lung cancer NCI-H23
[9] = test system: NCI-H322M; assay: NCI-60 DTP human tumor cell line screening; format: cell-based; details: Non-small cell lung cancer NCI-H322M
[10] = test system: NCI-H460; assay: NCI-60 DTP human tumor cell line screening; format: cell-based
[11] = test system: NCI-H522; assay: NCI-60 DTP human tumor cell line screening; format: cell-based; details: Non-small cell lung cancer NCI-H522
[12] = test system: COLO 205; assay: NCI-60 DTP human tumor cell line screening; format: cell-based; details: Colon cancer COLO 205
[13] = test system: HCC-2998; assay: NCI-60 DTP human tumor cell line screening; format: cell-based; details: Colon cancer HCC-2998
[14] = test system: HCT-15; assay: NCI-60 DTP human tumor cell line screening; format: cell-based; details: Colon cancer HCT-15
[15] = test system: HT29; assay: NCI-60 DTP human tumor cell line screening; format: cell-based
[16] = test system: KM12; assay: NCI-60 DTP human tumor cell line screening; format: cell-based
[17] = test system: SF-295; assay: NCI-60 DTP human tumor cell line screening; format: cell-based; details: CNS cancer SF-295
[18] = test system: SNB-19; assay: NCI-60 DTP human tumor cell line screening; format: cell-based; details: CNS cancer SNB-19
[19] = test system: SNB-75; assay: NCI-60 DTP human tumor cell line screening; format: cell-based; details: CNS cancer SNB-75
[20] = test system: SK-MEL-28; assay: NCI-60 DTP human tumor cell line screening; format: cell-based; details: Melanoma SK-MEL-28
[21] = test system: OVCAR-3; assay: NCI-60 DTP human tumor cell line screening; format: cell-based; details: Ovarian cancer OVCAR-3
[22] = test system: OVCAR-5; assay: NCI-60 DTP human tumor cell line screening; format: cell-based; details: Ovarian cancer OVCAR-5
[23] = test system: NCI/ADR-RES; assay: NCI-60 DTP human tumor cell line screening; format: cell-based
[24] = test system: SK-OV-3; assay: NCI-60 DTP human tumor cell line screening; format: cell-based; details: Ovarian cancer SK-OV-3
[25] = test system: 786-0; assay: NCI-60 DTP human tumor cell line screening; format: cell-based; details: Renal cancer 786-0
[26] = test system: ACHN; assay: NCI-60 DTP human tumor cell line screening; format: cell-based; details: Renal cancer ACHN
[27] = test system: RXF 393; assay: NCI-60 DTP human tumor cell line screening; format: cell-based; details: Renal cancer RXF 393
[28] = test system: UO-31; assay: NCI-60 DTP human tumor cell line screening; format: cell-based; details: Renal cancer UO-31
[29] = test system: PC-3; assay: NCI-60 DTP human tumor cell line screening; format: cell-based; details: Prostate cancer PC-3
[30] = test system: MCF-7; assay: NCI-60 DTP human tumor cell line screening; format: cell-based
[31] = test system: T-47D; assay: NCI-60 DTP human tumor cell line screening; format: cell-based; details: Breast cancer T-47D
[32] = test system: SK-MEL-5; assay: NCI-60 DTP human tumor cell line screening

SMILES: NC(=NS(=O)(=O)c1ccccc1Cl)c1ccc2ccccc2n1 [Compound 15, N′-(2-Chlorophenylsulfonyl)quinoline-2-carboximidamide]
- growth inhibitory activity ([1]; 6.25 μg/cm^3): 70%
- cytotoxic activity on fibroblast proliferation ([1]; 96 h, 6.25–100 μg/cm^3): strongly cytotoxic
- GI50 [2]: 3.52 µM
- inhibition at 10 µM ([3]; Homo sapiens, K562, read-out: Growth inhibition ΔGI): 35.9%
- GI50 ([3]; Homo sapiens, K562, Leukemia K-562): 3.11 µM
- TGI ([3]; Leukemia K-562): ^c (Determined TGI values were >100 μM)
- GI50 ([4]; Homo sapiens): 5.27 µM
- TGI [4]: ^c (Determined TGI values were >100 μM)
- GI50 ([5]; Homo sapiens): 0.92 µM
- TGI [5]: 21.40 µM
- GI50 ([6]; Homo sapiens): 8.75 µM
- TGI [6]: ^c (Determined TGI values were >100 μM)
- GI50 ([7]; Homo sapiens): 9.34 µM
- TGI [7]: 90.80 µM
- GI50 ([8]; Homo sapiens): 5.44 µM
- TGI [8]: ^c (Determined TGI values were >100 μM)
- GI50 ([9]; Homo sapiens): 5.19 µM
- TGI [9]: ^c (Determined TGI values were >100 μM)
- inhibition at 10 µM ([10]; Homo sapiens, NCI-H460, read-out: Growth inhibition ΔGI): 19.6%
- GI50 ([10]; Homo sapiens, Non-small cell lung cancer NCI-H460): 4.02 µM
- TGI ([10]; Non-small cell lung cancer NCI-H460): ^c (Determined TGI values were >100 μM)
- GI50 ([11]; Homo sapiens): 2.28 µM
- TGI [11]: 7.62 µM
- TGI [12]: 16.00 µM
- GI50 ([12]; Homo sapiens): 3.68 µM
- TGI [13]: 59.40 µM
- GI50 ([13]; Homo sapiens): 9.63 µM
- TGI [14]: ^c (Determined TGI values were >100 μM)
- GI50 ([14]; Homo sapiens): 4.23 µM
- TGI ([15]; Colon cancer HT29): 14.90 µM
- inhibition at 10 µM ([15]; Homo sapiens, HT-29, read-out: Growth inhibition ΔGI): 60.4%
- GI50 ([15]; Homo sapiens, HT-29, Colon cancer HT29): 3.4 µM
- TGI ([16]; Colon cancer KM12): ^c (Determined TGI values were >100 μM)
- inhibition at 10 µM ([16]; Homo sapiens, KM12, read-out: Growth inhibition ΔGI): 23%
- GI50 ([16]; Homo sapiens, Colon cancer KM12): 3.29 µM
- TGI [17]: 86.30 µM
- GI50 ([17]; Homo sapiens): 3.83 µM
- TGI [18]: ^c (Determined TGI values were >100 μM)
- GI50 ([18]; Homo sapiens): 5.61 µM
- TGI [19]: 30.60 µM
- GI50 ([19]; Homo sapiens): 2.52 µM
- GI50 ([20]; Homo sapiens): 5.45 µM
- TGI [20]: 12.00 µM
- GI50 [21]: 9.27 µM
- GI50 ([22]; Homo sapiens): 7.71 µM
- TGI [22]: ^c (Determined TGI values were >100 μM)
- inhibition at 10 µM ([23]; Homo sapiens, NCI/ADR-RES, read-out: Growth inhibition ΔGI): 42.9%
- GI50 ([23]; Homo sapiens, Ovarian cancer NCI/ADR-RES): 2.32 µM
- TGI ([23]; Ovarian cancer NCI/ADR-RES): 50.50 µM
- GI50 ([24]; Homo sapiens): 3.93 µM
- TGI [24]: ^c (Determined TGI values were >100 μM)
- GI50 ([25]; Homo sapiens): 4.94 µM
- TGI [25]: ^c (Determined TGI values were >100 μM)
- GI50 ([26]; Homo sapiens): 7.19 µM
- TGI [26]: 13.10 µM
- GI50 ([27]; Homo sapiens): 4.02 µM
- TGI [27]: 35.90 µM
- GI50 ([28]; Homo sapiens): 7.26 µM
- TGI [28]: 48.50 µM
- GI50 ([29]; Homo sapiens): 9.59 µM
- TGI [29]: ^c (Determined TGI values were >100 μM)
- TGI ([30]; Breast cancer MCF-7): ^c (Determined TGI values were >100 μM)
- inhibition at 10 µM ([30]; Homo sapiens, MCF7, read-out: Growth inhibition ΔGI): 15.7%
- GI50 ([30]; Homo sapiens, MCF7, Breast cancer MCF-7): 3.28 µM
- TGI [31]: ^c (Determined TGI values were >100 μM)
- GI50 ([31]; Homo sapiens, T47D): 7.04 µM
- GI50 ([32]; Homo sapiens, SK-MEL-5): 3.31 µM
- CC50 ([32]; Homo sapiens, SK-MEL-5, read-out: LC 50): 36.2 µM
- TGI ([32]; Melanoma SK-MEL-5): 50.50 µM
